For nine compounds, IC50 results are on record in BindingDB's records for doi:10.1016/j.bmc.2018.03.025 (Xi'An Jiaotong University, 2018).

A short description of the test: Inhibition of EGFR L858R mutant (unknown origin) using poly (Glu, Tyr) as substrate after 40 mins by kinase-glo plus luminescence assay. A general note: In Kinase-Glo more light means more ATP remaining.

As to `CN(C)C1CCN(c2ccc(Nc3ncc4nc(Sc5ccccc5)n(C5CCOCC5)c4n3)cc2)CC1`, the IC50 (commonly the concentration needed to halve the response being measured) was 1.9 nM. For the compound `CN1CCN(c2ccc(Nc3ncc4nc(Sc5ccccc5)n([C@H]5CC[C@H](O)CC5)c4n3)cc2)CC1`, the half-inhibitory concentration (IC50) came to 2.4 nM. As for `CN1CCN(c2ccc(Nc3ncc4nc(Sc5ccccc5)n(C5CCCC5)c4n3)cc2)CC1`, the figure is 4.2 nM; as for `CN1CCN(c2ccc(Nc3ncc4nc(Sc5ccccc5)n(C5CCOCC5)c4n3)cc2)CC1`, 2 nM. As for `CN(C)CCOc1ccc(Nc2ncc3nc(Sc4cccc(F)c4)n(C4CCOCC4)c3n2)cc1`, the figure is 5.8 nM. As for `CN(C)CCOc1ccc(Nc2ncc3nc(Sc4ccc(F)cc4)n(C4CCOCC4)c3n2)cc1`, the figure is 1.2 nM; as for `CN1CCN(c2ccc(Nc3ncc4nc([S+]([O-])c5ccccc5)n(C5CCCC5)c4n3)cc2)CC1` (centres undefined), 4.2 nM; as for `CN(C)CCOc1ccc(Nc2ncc3nc(Sc4ccccc4)n(C4CCOCC4)c3n2)cc1`, 1.7 nM. As to `CN(C)CCOc1ccc(Nc2ncc3nc([S+]([O-])c4ccccc4)n(C4CCOCC4)c3n2)cc1` (centres undefined), the half-maximal inhibitory concentration (IC50) came to 2.6 nM.
